Assay results as given in patent US20190209506A1, “METHODS OF REDUCING OR PREVENTING OXIDATION OF LDL OR LIPID MEMBRANES IN A SUBJECT IN NEED THEREOF” (Amarin Pharmaceuticals Ireland Limited, priority 2018, published 2019).
Several values for one entry are separate records, joined by “and”; a condition that tells them apart may be missing. Equal entries are not always repeated.

Columns and labels:
human sdLDL = experiment: Copper-induced sdLDL oxidation with fatty acids, TBARS/MDA (Example 14); format: biochemical; conditions: 1.0 μM
Procedure: Venous blood was collected from healthy volunteers into vacutainer tubes. Plasma was separated by centrifugation at 3000 g for 25 min at 4° C. and adjusted to a density of 1.020 g/mL with KBr. sdLDL was isolated from the plasma of healthy volunteers by iodixanol density gradient ultracentrifugation and adjusted to a final apolipoprotein concentration of 2 mg/mL. An aliquot of sdLDL (50 μL) was incubated with either 10 μL vehicle (ethanol) or 10 μL FA (EPA, ETE, AA, EA, DHA, DPA, ALA, LA or SA) treatment stock solution (100 μM) for 30 min at 37° C. Oxidation was initiated with addition of initiator CuSO4 (10.0 μM). At certain time points (0, 40, 60, and 120 minutes), […] were removed from each subfraction and combined with 1.0 mL thiobarbituric acid (0.5%), 10 μL trichloroacetic acid (10%), 10 μL butylated hydroxytoluene (BHT; 35 mM in ethanol), and 10 μL ethylenediaminetetraacetic acid (EDTA; 5 mM). Sample aliquots were incubated at 100° C. for 30 min and then assayed for the formation of thiobarbituric acid reactive substances (TBARS), which have a molar absorptivity (ε) value of 1.56×105 M^−1 cm^−1 at 532 nm and are largely derived from the reaction of thiobarbituric acid with MDA, a reactive aldehyde produced by sdLDL oxidation. Sample TBARS concentrations were determined spectrophotometrically by measuring sample absorbances against a standard curve derived from the hydrolysis of 1,1,3,3-tetramethoxypropane.

human LDL = experiment: Copper-induced LDL oxidation, dose and time dependence, MDA (Example 17); format: biochemical
Procedure: LDL was isolated from human plasma by isopycnic centrifugation, separated into test samples of 100 μg/mL, and incubated at 37° C. for 30 min in the absence (vehicle) or presence of EPA over a range of concentrations of 1 to 10 μM. The samples were subsequently subjected to copper-induced oxidation. Following the copper-induced oxidation, LDL oxidation was measured over the course of six hours. Tables 8 and 9 enumerate the changes in MDA concentration expressed as molar equivalents for each of the vehicle and EPA test samples as a function of time (i.e., at 0 hours, 1 hour, 2 hours, 2.5 hours, and 3 hours).

HUVECs = experiment: NO release from HUVECs incubated with treated, oxidized sdLDL (Example 12); format: cell-based, human; conditions: sdLDL treated at 10.0 μM
Procedure: All samples, with the exception of non-oxidized sdLDL controls, were subjected to copper-induced oxidation for 1 hour. Human umbilical vein endothelial cells (HUVECs) were incubated with the various sdLDL samples, stimulated with calcium, and monitored for nitric oxide (NO) and peroxynitrite (ONOO^−) release using nanosensor technology.

CC/C=C\C/C=C\C/C=C\C/C=C\C/C=C\CCCC(=O)O [EPA, cis-5,8,11,14,17-eicosapentaenoic acid]
inhibition of lipoprotein oxidation versus vehicle (human sdLDL; 40 minutes): 70% | inhibition of oxidation compared to vehicle (human sdLDL; 60 minutes): 44% | MDA Equivalents (Mean ± SD) (human sdLDL; time point 0 min): 0.30 ± 0.04 µM | MDA Equivalents (Mean ± SD) (human sdLDL; time point 40 min): 3.14 ± 0.19 µM | MDA Equivalents (Mean ± SD) (human sdLDL; time point 60 min): 6.42 ± 0.24 µM | MDA Equivalents (Mean ± SD) (human sdLDL; time point 120 min): 12.46 ± 0.75 µM | MDA Equivalent (human LDL; EPA 1.0 μM, 0 Hour): 0.24 µM and 0.26 µM | MDA Equivalent (human LDL; EPA 1.0 μM, 1 Hour): 3.85 µM and 3.14 µM and 2.87 µM | MDA Equivalent (human LDL; EPA 1.0 μM, 2 Hour): 10.33 µM and 10.92 µM and 10.63 µM | MDA Equivalent (human LDL; EPA 1.0 μM, 2.5 Hour): 10.60 µM and 10.92 µM and 10.65 µM | MDA Equivalent (human LDL; EPA 1.0 μM, 3 Hour): 9.44 µM and 9.95 µM and 9.93 µM | MDA Equivalent (human LDL; EPA 1.0 μM, 3.5 Hour): 10.13 µM and 10.87 µM | MDA Equivalent (human LDL; EPA 1.0 μM, 4 Hour): 8.93 µM and 9.39 µM | MDA Equivalent (human LDL; EPA 1.0 μM, 6 Hour): 9.79 µM and 10.10 µM | MDA Equivalent (human LDL; EPA 2.0 μM, 0 Hour): 0.25 µM and 0.26 µM and 0.19 µM | MDA Equivalent (human LDL; EPA 2.0 μM, 1 Hour): 1.15 µM and 1.04 µM | MDA Equivalent (human LDL; EPA 2.0 μM, 2 Hour): 7.34 µM and 7.35 µM and 7.67 µM | MDA Equivalent (human LDL; EPA 2.0 μM, 2.5 Hour): 9.45 µM and 9.62 µM and 9.60 µM | MDA Equivalent (human LDL; EPA 3.0 μM, 0 Hour): 0.21 µM and 0.22 µM | MDA Equivalent (human LDL; EPA 3.0 μM, 1 Hour): 0.56 µM and 0.57 µM and 0.53 µM | MDA Equivalent (human LDL; EPA 3.0 μM, 2 Hour): 1.72 µM and 1.78 µM and 1.74 µM | MDA Equivalent (human LDL; EPA 3.0 μM, 2.5 Hour): 3.09 µM and 3.01 µM and 2.91 µM | MDA Equivalent (human LDL; EPA 3.5 μM, 0 Hour): 0.17 µM and 0.26 µM and 0.29 µM | MDA Equivalent (human LDL; EPA 3.5 μM, 2 Hour): 1.04 µM and 1.05 µM and 0.90 µM | MDA Equivalent (human LDL; EPA 3.5 μM, 2.5 Hour): 1.16 µM and 1.43 µM and 0.95 µM | MDA Equivalent (human LDL; EPA 4.0 μM, 0 Hour): 0.19 µM and 0.21 µM and 0.22 µM | MDA Equivalent (human LDL; EPA 4.0 μM, 1 Hour): 0.37 µM and 0.41 µM and 0.40 µM | MDA Equivalent (human LDL; EPA 4.0 μM, 2 Hour): 1.00 µM and 0.78 µM and 0.71 µM | MDA Equivalent (human LDL; EPA 4.0 μM, 2.5 Hour): 1.26 µM and 0.94 µM and 0.80 µM | MDA Equivalent (human LDL; EPA 4.5 μM, 0 Hour): 0.28 µM and 0.17 µM and 0.18 µM | MDA Equivalent (human LDL; EPA 4.5 μM, 1 Hour): 0.28 µM and 0.30 µM and 0.21 µM | MDA Equivalent (human LDL; EPA 4.5 μM, 2 Hour): 0.38 µM and 0.50 µM and 0.44 µM | MDA Equivalent (human LDL; EPA 4.5 μM, 2.5 Hour): 0.36 µM and 0.19 µM and 0.31 µM | MDA Equivalent (human LDL; EPA 5.0 μM, 0 Hour): 0.19 µM and 0.26 µM and 0.27 µM | MDA Equivalent (human LDL; EPA 5.0 μM, 2 Hour): 0.35 µM and 0.33 µM and 0.30 µM | MDA Equivalent (human LDL; EPA 5.0 μM, 2.5 Hour): 0.22 µM and 0.24 µM and 0.21 µM | MDA Equivalent (human LDL; EPA 10.0 μM, 0 Hour): 0.21 µM and 0.24 µM and 0.29 µM | MDA Equivalent (human LDL; EPA 10.0 μM, 1 Hour): 0.12 µM and 0.06 µM | MDA Equivalent (human LDL; EPA 10.0 μM, 2 Hour): 0.27 µM and 0.29 µM and 0.23 µM | MDA Equivalent (human LDL; EPA 10.0 μM, 2.5 Hour): 0.01 µM and 0.02 µM | inhibition of LDL oxidation (human LDL; above 7.0 μM, through 6 hours): > 88% | IC50 (human LDL; at 6 hours, read-out: half-maximum concentration of inhibition of LDL oxidation): 5 µM | time up to which oxidation was inhibited (human LDL; concentrations ≤3 μM): up to 4 hours | increase of NO release compared to non-oxidized sdLDL (HUVECs): 23% | increase of NO release compared to oxidized LDL (HUVECs): 53%
